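Each compound was tested at five concentrations against cells in 96-well plates for 48 hours. At the GI50, growth is halved. TGI denotes the concentration required for complete inhibition of growth.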
Legend:
Test in all cases: NCI tumour cell line growth inhibition, 48 h
SW-620 colon = test system: SW-620 colon
SNB-19 CNS = test system: SNB-19 CNS
EKVX NSCLC = test system: EKVX NSCLC
OVCAR-3 ovarian = test system: OVCAR-3 ovarian
K-562 leukemia = test system: K-562 leukemia
HT29 colon = test system: HT29 colon
MDA-MB-231 breast = test system: MDA-MB-231 breast
NCI-H460 lung = test system: NCI-H460 lung
SF-268 CNS = test system: SF-268 CNS
SK-MEL-28 melanoma = test system: SK-MEL-28 melanoma

## [Mn+3].[O-][Cl+3]([O-])([O-])O.[O-]c1ccccc1C=NCCN1CC1.[O-]c1ccccc1C=NCCN1CC1
SW-620 colon
  GI50: 17.1 µM
  TGI: > 100 µM
SNB-19 CNS
  GI50: 44.6 µM
  TGI: > 100 µM
EKVX NSCLC
  GI50: 41.3 µM
  TGI: > 100 µM
OVCAR-3 ovarian
  GI50: 19.6 µM
  TGI: 40.1 µM
K-562 leukemia
  GI50: 20.5 µM
  TGI: 42.4 µM
HT29 colon
  GI50: 20.2 µM
  TGI: 44.1 µM
MDA-MB-231 breast
  GI50: 20.9 µM
  TGI: > 100 µM
NCI-H460 lung
  GI50: 27 µM
  TGI: > 100 µM
SF-268 CNS
  GI50: 15.9 µM
  TGI: > 100 µM
SK-MEL-28 melanoma
  GI50: 35.8 µM
  TGI: > 100 µM

## CC[C@H](C)[C@H](NC(=O)c1ncccn1)C(=O)N(C)[C@H](C[C@@H](OC(C)=O)c1nc(C(=O)N[C@@H](Cc2ccccc2)C[C@H](C)C(=O)OC)cs1)C(C)C
SW-620 colon
  GI50: 0.896 µM
  TGI: > 25 µM
SNB-19 CNS
  GI50: 2.32 µM
  TGI: > 25 µM
EKVX NSCLC
  GI50: 4.62 µM
  TGI: > 25 µM
OVCAR-3 ovarian
  GI50: 0.796 µM
  TGI: > 25 µM
K-562 leukemia
  GI50: 0.935 µM
  TGI: > 25 µM
HT29 colon
  GI50: 0.893 µM
  TGI: > 25 µM
MDA-MB-231 breast
  GI50: 1.4 µM
  TGI: 10.9 µM
NCI-H460 lung
  GI50: 0.925 µM
  TGI: > 25 µM
SF-268 CNS
  GI50: 2.21 µM
  TGI: > 25 µM
SK-MEL-28 melanoma
  GI50: 3.51 µM
  TGI: > 25 µM

## C#Cc1cccc(Nc2nc(C)nc3cc(NC(=O)CCl)ccc23)c1
SW-620 colon
  GI50: 0.659 µM
  TGI: 1.93 µM
SNB-19 CNS
  GI50: 1.29 µM
  TGI: 4.29 µM
EKVX NSCLC
  GI50: 3.13 µM
  TGI: 7.62 µM
OVCAR-3 ovarian
  GI50: 2.7 µM
  TGI: 6.06 µM
K-562 leukemia
  GI50: 0.953 µM
  TGI: 3.65 µM
HT29 colon
  GI50: 1.06 µM
  TGI: 4.15 µM
MDA-MB-231 breast
  GI50: 0.886 µM
  TGI: 3.92 µM
NCI-H460 lung
  GI50: 3.23 µM
  TGI: 7.19 µM
SF-268 CNS
  GI50: 2.62 µM
  TGI: 6.82 µM
SK-MEL-28 melanoma
  GI50: 3.7 µM
  TGI: 7.41 µM

## Oc1cccc2ccc(SSc3ccc4cccc(O)c4n3)nc12
SW-620 colon
  TGI: 96.4 µM
SNB-19 CNS
  TGI: > 100 µM
EKVX NSCLC
  TGI: > 100 µM
OVCAR-3 ovarian
  TGI: 34.7 µM
K-562 leukemia
  TGI: > 100 µM
HT29 colon
  TGI: 41.5 µM
MDA-MB-231 breast
  TGI: 32.3 µM
NCI-H460 lung
  TGI: 42.6 µM
SF-268 CNS
  TGI: 75.4 µM
SK-MEL-28 melanoma
  TGI: 41.3 µM

## CO[C@H]1/C=C/O[C@@]2(C)Oc3c(C)c(O)c4c(O)c(c(/C=N/N5C(C)CN(Cc6ccc(C#N)cc6)CC5C)c(O)c4c3C2=O)NC(=O)/C(C)=C\C=C\[C@H](C)[C@H](O)[C@@H](C)[C@@H](O)[C@@H](C)[C@H](OC(C)=O)[C@@H]1C (stereo not given in full)
SW-620 colon
  GI50: 8.15 µM
  TGI: 17.5 µM
SNB-19 CNS
  GI50: 7.55 µM
  TGI: 18.1 µM
EKVX NSCLC
  GI50: 4.26 µM
  TGI: 39.4 µM
OVCAR-3 ovarian
  GI50: 6.99 µM
  TGI: 13.5 µM
K-562 leukemia
  GI50: 6.71 µM
  TGI: 25.3 µM
HT29 colon
  GI50: 6.87 µM
  TGI: 14.4 µM
MDA-MB-231 breast
  GI50: 7.49 µM
  TGI: 14.9 µM
NCI-H460 lung
  GI50: 5.76 µM
  TGI: 14.1 µM
SF-268 CNS
  GI50: 9.58 µM
  TGI: 24.1 µM
SK-MEL-28 melanoma
  GI50: 8.45 µM
  TGI: 16.4 µM

## Oc1c(CN2CCCCC2)ccc2cccnc12
SW-620 colon
  GI50: 4.26 µM
  TGI: 18 µM
SNB-19 CNS
  GI50: 8.86 µM
  TGI: > 100 µM
EKVX NSCLC
  GI50: 3.26 µM
  TGI: 37.4 µM
OVCAR-3 ovarian
  GI50: 2.41 µM
  TGI: 8.22 µM
K-562 leukemia
  GI50: 3.63 µM
  TGI: > 100 µM
HT29 colon
  GI50: 4.88 µM
  TGI: 19.6 µM
MDA-MB-231 breast
  GI50: 4.79 µM
  TGI: > 100 µM
NCI-H460 lung
  GI50: 2.31 µM
  TGI: 7.62 µM
SF-268 CNS
  GI50: 6.07 µM
  TGI: > 100 µM
SK-MEL-28 melanoma
  GI50: 9.23 µM
  TGI: > 100 µM

## O=c1cc(-c2ccccc2)oc2c(O)c(O)ccc12
SW-620 colon
  GI50: 6.66 µM
  TGI: > 100 µM
SNB-19 CNS
  GI50: 16.8 µM
  TGI: > 100 µM
EKVX NSCLC
  GI50: 18.4 µM
  TGI: > 100 µM
OVCAR-3 ovarian
  GI50: 2.19 µM
  TGI: 6.18 µM
K-562 leukemia
  GI50: 6.08 µM
  TGI: > 100 µM
HT29 colon
  GI50: 35.4 µM
  TGI: > 100 µM
MDA-MB-231 breast
  GI50: 23.2 µM
  TGI: > 100 µM
NCI-H460 lung
  GI50: 4.44 µM
  TGI: > 100 µM
SF-268 CNS
  GI50: 6.4 µM
  TGI: > 100 µM
SK-MEL-28 melanoma
  GI50: 11.4 µM
  TGI: > 100 µM

## COc1nc2c(c(=O)n1C)CN(c1ccccc1)C(=O)CN2C
SW-620 colon
  GI50: > 100 µM
  TGI: > 100 µM
SNB-19 CNS
  GI50: 60.4 µM
  TGI: > 100 µM
EKVX NSCLC
  GI50: 19.9 µM
  TGI: > 100 µM
OVCAR-3 ovarian
  GI50: 38.4 µM
  TGI: > 100 µM
K-562 leukemia
  GI50: 59.7 µM
  TGI: > 100 µM
HT29 colon
  GI50: 60.9 µM
  TGI: > 100 µM
MDA-MB-231 breast
  GI50: 41.7 µM
  TGI: > 100 µM
NCI-H460 lung
  GI50: 60.2 µM
  TGI: > 100 µM
SF-268 CNS
  GI50: 36.8 µM
  TGI: > 100 µM
SK-MEL-28 melanoma
  GI50: 70 µM
  TGI: > 100 µM

## COc1ccc(-c2oc3ncnc(N)c3c2-c2ccc(NC(=O)Nc3cc(C(F)(F)F)ccc3F)cc2)cc1
SW-620 colon
  GI50: 0.952 µM
  TGI: 3.58 µM
SNB-19 CNS
  GI50: 1.61 µM
  TGI: 12.2 µM
EKVX NSCLC
  GI50: 1.59 µM
  TGI: 9.74 µM
OVCAR-3 ovarian
  GI50: 1.3 µM
  TGI: 4.32 µM
K-562 leukemia
  GI50: 1.19 µM
  TGI: 16.6 µM
HT29 colon
  GI50: 0.844 µM
  TGI: 3.12 µM
MDA-MB-231 breast
  GI50: 1.1 µM
  TGI: 6.17 µM
NCI-H460 lung
  GI50: 0.85 µM
  TGI: 2.97 µM
SF-268 CNS
  GI50: 1.03 µM
  TGI: 3.76 µM
SK-MEL-28 melanoma
  GI50: 1.94 µM
  TGI: 5.26 µM

## COC(=O)[C@@H](C)C[C@H](Cc1ccc(F)cc1)NC(=O)c1csc([C@@H](C[C@H](C(C)C)N(C)C(=O)[C@@H](NC(=O)[C@H]2CCCCN2C)C2CC2)OC(C)=O)n1
SW-620 colon
  GI50: 0.129 µM
  TGI: > 25 µM
SNB-19 CNS
  GI50: 0.164 µM
  TGI: > 25 µM
EKVX NSCLC
  GI50: 0.88 µM
  TGI: > 25 µM
OVCAR-3 ovarian
  GI50: 0.0723 µM
  TGI: 0.633 µM
K-562 leukemia
  GI50: 0.0605 µM
  TGI: > 25 µM
HT29 colon
  GI50: 0.107 µM
  TGI: > 25 µM
MDA-MB-231 breast
  GI50: 0.315 µM
  TGI: 1.65 µM
NCI-H460 lung
  GI50: 0.255 µM
  TGI: > 25 µM
SF-268 CNS
  GI50: 1.16 µM
  TGI: > 25 µM
SK-MEL-28 melanoma
  GI50: 1.05 µM
  TGI: > 25 µM

## Cc1ccc(NC(=O)CCc2nnc3s/c(=C\C=C\c4ccccc4)c(=O)n23)cc1
SW-620 colon
  TGI: > 100 µM
SNB-19 CNS
  TGI: > 100 µM
EKVX NSCLC
  TGI: > 100 µM
OVCAR-3 ovarian
  TGI: > 87.2 µM
K-562 leukemia
  TGI: > 100 µM
HT29 colon
  TGI: > 100 µM
MDA-MB-231 breast
  TGI: > 100 µM
NCI-H460 lung
  TGI: > 100 µM
SF-268 CNS
  TGI: > 100 µM
SK-MEL-28 melanoma
  TGI: > 100 µM

## COc1ccc2c(c1)C(=O)/C(=C/c1ccc(O)cc1)O2
SW-620 colon
  GI50: 3.34 µM
  TGI: 8.99 µM
SNB-19 CNS
  GI50: 43 µM
  TGI: > 100 µM
EKVX NSCLC
  GI50: 18.6 µM
  TGI: > 53.5 µM
OVCAR-3 ovarian
  GI50: 2.28 µM
  TGI: 5.29 µM
K-562 leukemia
  GI50: 2.58 µM
  TGI: > 24.8 µM
HT29 colon
  GI50: 4.14 µM
  TGI: 14.8 µM
MDA-MB-231 breast
  GI50: 14.2 µM
  TGI: 28.8 µM
NCI-H460 lung
  GI50: 20.3 µM
  TGI: 50.3 µM
SF-268 CNS
  GI50: 14.8 µM
  TGI: 41.1 µM
SK-MEL-28 melanoma
  GI50: 14.3 µM
  TGI: 29.6 µM

From PubChem BioAssay (NCI)
